Paper PMC2430034, “Structural Development Studies of Subtype-Selective Ligands for Peroxisome Proliferator-Activated Receptors (PPARs) Based on the 3,4-Disubstituted Phenylpropanoic Acid Scaffold as a Versatile Template” (PPAR Research, 2008)
Read-outs that look alike come from different tables or passages of the source.

Legend:
Assay type in all cases: cell-based
[1] = molecular target: T1, PPARα (Homo sapiens, UniProt Q07869); test: PPARα-GAL4 chimeric receptor transactivation in CHO-K1 cells; conditions: for EC50: read-out: Transactivation activity EC50 PPARα
T1 sequence (Q07869 200-468 limits assumed): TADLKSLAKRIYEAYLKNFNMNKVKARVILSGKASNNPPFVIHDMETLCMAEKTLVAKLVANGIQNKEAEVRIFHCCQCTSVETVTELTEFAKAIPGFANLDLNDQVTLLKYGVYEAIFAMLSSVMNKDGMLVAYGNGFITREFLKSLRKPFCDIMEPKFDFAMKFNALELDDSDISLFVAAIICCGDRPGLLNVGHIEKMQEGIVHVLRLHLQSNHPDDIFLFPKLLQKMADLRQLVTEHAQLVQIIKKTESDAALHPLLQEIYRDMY

[2] = molecular target: T2, PPARδ (Homo sapiens, UniProt Q03181); test: cell-based; conditions: PPAR-GAL4 chimeric receptors, transiently transfected CHO-K1 cells, ia = inactive at 10 μM; for EC50: read-out: Transactivation activity EC50 PPARδ
T2 sequence (Q03181 211-441 limits assumed): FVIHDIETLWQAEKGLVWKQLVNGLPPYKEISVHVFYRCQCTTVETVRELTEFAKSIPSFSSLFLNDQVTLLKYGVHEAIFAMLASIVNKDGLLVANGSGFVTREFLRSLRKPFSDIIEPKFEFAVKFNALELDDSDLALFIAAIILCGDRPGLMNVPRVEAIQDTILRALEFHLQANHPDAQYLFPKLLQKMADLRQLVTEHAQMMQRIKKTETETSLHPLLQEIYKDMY

[3] = molecular target: T3, PPARγ (Homo sapiens, UniProt P37231); test: cell-based; conditions: PPAR-GAL4 chimeric receptors, transiently transfected CHO-K1 cells, ia = inactive at 10 μM; for EC50: read-out: Transactivation activity EC50 PPARγ
T3 sequence (P37231 232-505 limits assumed): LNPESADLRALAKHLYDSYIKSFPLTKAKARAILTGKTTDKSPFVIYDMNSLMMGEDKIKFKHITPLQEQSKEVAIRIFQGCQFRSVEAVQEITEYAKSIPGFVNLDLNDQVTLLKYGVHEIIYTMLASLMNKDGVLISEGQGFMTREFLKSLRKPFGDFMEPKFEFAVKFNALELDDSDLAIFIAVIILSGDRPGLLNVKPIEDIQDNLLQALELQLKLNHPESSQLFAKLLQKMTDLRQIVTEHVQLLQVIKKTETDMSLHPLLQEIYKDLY

[4] = molecular target: T4, PPARδ (Homo sapiens, UniProt Q03181); test: cell-based; conditions: PPAR-GAL4 chimeric receptors, transiently transfected HEK-293 cells; ia = inactive at 10 μM; read-out: Transactivation activity EC50 PPARδ
T4 sequence (Q03181 171-441 limits assumed): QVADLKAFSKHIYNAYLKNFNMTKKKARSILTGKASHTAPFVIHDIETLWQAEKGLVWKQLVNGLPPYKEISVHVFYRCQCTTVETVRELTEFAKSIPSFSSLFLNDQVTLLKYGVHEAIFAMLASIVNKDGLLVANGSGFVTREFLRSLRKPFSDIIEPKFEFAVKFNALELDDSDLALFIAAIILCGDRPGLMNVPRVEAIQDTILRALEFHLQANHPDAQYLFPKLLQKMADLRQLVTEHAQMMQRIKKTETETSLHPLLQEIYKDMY

[5] = molecular target: T1, PPARα; test: PPARα-GAL4 chimeric receptor transactivation in HEK-293 cells; conditions: PPAR-GAL4 chimeric receptors, transiently transfected HEK-293 cells; ia = inactive at 10 μM
[6] = PPAR-GAL4 chimeric receptors, transiently transfected CHO-K1 cells, ia = inactive at 10 μM

For `CCC(Cc1ccc(OC)c(NC(=O)Nc2ccc(C(F)(F)F)cc2)c1)C(=O)O` (centres unmarked) [Compound 28], the “Transactivation activity EC50 PPARα” value [1, 6] was “ia”, the “Transactivation activity EC50 PPARδ” value [2] was “ia” and the “Transactivation activity EC50 PPARγ” value [3] was “ia”.

With `CCC(Cc1ccc(OC)c(CNC(=O)c2ccc(C(F)(F)F)cc2)c1)C(=O)O` (racemic) [Compound 49] the EC50 [4] was 0.17 µM and the EC50 [5] was 0.018 µM.

In the case of `CCC(Cc1ccc(OC)c(CCCc2ccc(C(F)(F)F)cc2)c1)C(=O)O` (centres unmarked) [Compound 31], the EC50 [1] is reported as 0.86 µM, the EC50 [2] is reported as 0.64 µM and the “Transactivation activity EC50 PPARγ” value [3] is reported as “ia”.

In the case of `COc1ccc(CCC(=O)O)cc1C(=O)NCc1ccc(C(F)(F)F)cc1` [Compound 9], the EC50 [1, 6] is reported as 1.3 µM, the “Transactivation activity EC50 PPARδ” value [2] is reported as “ia” and the “Transactivation activity EC50 PPARγ” value [3] is reported as “ia”.

With `COc1ccc(CC(=O)O)cc1C(=O)NCc1ccc(C(F)(F)F)cc1` [Compound 8] the “Transactivation activity EC50 PPARα” value [1, 6] was “ia”, the “Transactivation activity EC50 PPARδ” value [2] was “ia” and the “Transactivation activity EC50 PPARγ” value [3] was “ia”.

`COc1ccc(CCC(=O)O)cc1CNC(=O)c1ccc(C(F)(F)F)cc1` [Compound 58] was tested, and the EC50 [4] was 3 µM and the EC50 [5] was 0.21 µM.

Compound `CCOC(Cc1ccc(OC)c(C(=O)NCc2ccc(C(F)(F)F)cc2)c1)C(=O)O` (centres unmarked) [Compound 17] has an EC50 [1, 6] of 1.6 µM, an EC50 [2] of 3 µM and an EC50 [3] of 2.8 µM.

In the case of `CCCC(Cc1ccc(OC)c(C(=O)NCc2ccc(C(F)(F)F)cc2)c1)C(=O)O` (centres unmarked) [Compound 12], the EC50 [1, 6] is reported as 0.36 µM, the EC50 [2] is reported as 2.4 µM and the “Transactivation activity EC50 PPARγ” value [3] is reported as “ia”.

With `CCC(Cc1ccc(OC)c(C(=O)CCc2ccc(C(F)(F)F)cc2)c1)C(=O)O` (centres unmarked) [Compound 30] the EC50 [1] was 0.32 µM, the “Transactivation activity EC50 PPARδ” value [2] was “ia” and the EC50 [3] was 7.4 µM.

For `CCC(Cc1ccc(OC)c(NC(=O)Cc2ccc(C(F)(F)F)cc2)c1)C(=O)O` (centres unmarked) [Compound 27], the EC50 [1] was 0.13 µM, the “Transactivation activity EC50 PPARδ” value [2] was “ia” and the “Transactivation activity EC50 PPARγ” value [3] was “ia”.

With `CCCCC(Cc1ccc(OC)c(C(=O)NCc2ccc(C(F)(F)F)cc2)c1)C(=O)O` (centres unmarked) [Compound 14] the EC50 [1, 6] was 1 µM, the “Transactivation activity EC50 PPARδ” value [2] was “ia” and the EC50 [3] was 2.5 µM.

`CCC(Cc1ccc(OC)c(CNCc2ccc(C(F)(F)F)cc2)c1)C(=O)O` (centres unmarked) [Compound 34] was tested, and the EC50 [1] was 4.9 µM, the EC50 [2] was 8 µM and the “Transactivation activity EC50 PPARγ” value [3] was “ia”.

In the case of `COc1ccc(CC(SCc2ccccc2)C(=O)O)cc1C(=O)NCc1ccc(C(F)(F)F)cc1` (centres unmarked) [Compound 23], the “Transactivation activity EC50 PPARα” value [1, 6] is reported as “ia”, the “Transactivation activity EC50 PPARδ” value [2] is reported as “ia” and the “Transactivation activity EC50 PPARγ” value [3] is reported as “ia”.

With `COc1ccc(CC(Sc2ccccc2)C(=O)O)cc1C(=O)NCc1ccc(C(F)(F)F)cc1` (centres unmarked) [Compound 22] the “Transactivation activity EC50 PPARα” value [1, 6] was “ia”, the “Transactivation activity EC50 PPARδ” value [2] was “ia” and the “Transactivation activity EC50 PPARγ” value [3] was “ia”.

In the case of `COc1ccc(CC(C(=O)O)c2ccccc2)cc1C(=O)NCc1ccc(C(F)(F)F)cc1` (centres unmarked) [Compound 15], the “Transactivation activity EC50 PPARα” value [1, 6] is reported as “ia”, the “Transactivation activity EC50 PPARδ” value [2] is reported as “ia” and the “Transactivation activity EC50 PPARγ” value [3] is reported as “ia”.

Work on `CCC(Cc1ccc(OC)c(C(=O)NCc2ccc(C(F)(F)F)cc2)c1)C(=O)O` (centres unmarked) [Compound 11] yielded an EC50 [1, 6] of 0.04 µM and an EC50 [2] of 3.6 µM.

In the case of `CCC(Cc1ccc(OC)c(CC(=O)Nc2ccc(C(F)(F)F)cc2)c1)C(=O)O` (centres unmarked) [Compound 29], the EC50 [1] is reported as 0.02 µM, the “Transactivation activity EC50 PPARδ” value [2] is reported as “ia” and the “Transactivation activity EC50 PPARγ” value [3] is reported as “ia”.

`COc1ccc(CC(C)C(=O)O)cc1CNC(=O)c1ccc(C(F)(F)F)cc1` (centres unmarked) [Compound 59] showed an EC50 [4] of 0.21 µM and an EC50 [5] of 0.019 µM.

In the case of `COc1ccc(C(=O)O)cc1C(=O)NCc1ccc(C(F)(F)F)cc1` [Compound 7], the “Transactivation activity EC50 PPARα” value [1, 6] is reported as “ia^(b)”, the “Transactivation activity EC50 PPARδ” value [2] is reported as “ia” and the “Transactivation activity EC50 PPARγ” value [3] is reported as “ia”.

`CCC(Cc1ccc(OC)c(C(=O)NCCc2ccc(C(F)(F)F)cc2)c1)C(=O)O` (centres unmarked) [Compound 25] was tested, and the EC50 [1] was 0.74 µM, the EC50 [2] was 1.5 µM and the “Transactivation activity EC50 PPARγ” value [3] was “ia”.

For `CCC(Cc1ccc(OC)c(CNC(=O)c2ccc(C(F)(F)F)cc2F)c1)C(=O)O` (racemic) [Compound 55], the EC50 [4] was 0.021 µM and the EC50 [5] was 0.0082 µM.

For `COc1ccc(CC(Oc2ccccc2)C(=O)O)cc1C(=O)NCc1ccc(C(F)(F)F)cc1` (centres unmarked) [Compound 18], the “Transactivation activity EC50 PPARα” value [1, 6] was “ia”, the “Transactivation activity EC50 PPARδ” value [2] was “ia” and the “Transactivation activity EC50 PPARγ” value [3] was “ia”.

`COc1ccc(CC2SC(=O)NC2=O)cc1C(=O)NCc1ccc(C(F)(F)F)cc1` (centres unmarked) [KRP-297, reference compound] was tested, and the “Transactivation activity EC50 PPARδ” value [2] was “ia”.

`CCC(Cc1ccc(OC)c(OCCc2ccc(C(F)(F)F)cc2)c1)C(=O)O` (centres unmarked) [Compound 32] was tested, and the EC50 [1] was 0.68 µM, the EC50 [2] was 0.4 µM and the “Transactivation activity EC50 PPARγ” value [3] was “ia”.

With `COc1ccc(CC(C)C(=O)O)cc1C(=O)NCc1ccc(C(F)(F)F)cc1` (centres unmarked) [Compound 10] the EC50 [1, 6] was 0.24 µM, the EC50 [2] was 2.8 µM and the “Transactivation activity EC50 PPARγ” value [3] was “ia”.

For `CCC(Cc1ccc(OC)c(C(=O)Nc2ccc(C(F)(F)F)cc2)c1)C(=O)O` (centres unmarked) [Compound 24], the EC50 [1] was 6 µM, the “Transactivation activity EC50 PPARδ” value [2] was “ia^(b)” and the “Transactivation activity EC50 PPARγ” value [3] was “ia”.

In the case of `COc1ccc(CC(OC)C(=O)O)cc1C(=O)NCc1ccc(C(F)(F)F)cc1` (centres unmarked) [Compound 16], the EC50 [1, 6] is reported as 0.23 µM, the “Transactivation activity EC50 PPARδ” value [2] is reported as “ia” and the “Transactivation activity EC50 PPARγ” value [3] is reported as “ia”.

In the case of `COc1ccc(CC(C)(C)C(=O)O)cc1C(=O)NCc1ccc(C(F)(F)F)cc1` [Compound 19], the EC50 [1, 6] is reported as 2.9 µM, the “Transactivation activity EC50 PPARδ” value [2] is reported as “ia” and the “Transactivation activity EC50 PPARγ” value [3] is reported as “ia”.

With `CCC(CC)(Cc1ccc(OC)c(C(=O)NCc2ccc(C(F)(F)F)cc2)c1)C(=O)O` [Compound 20] the EC50 [1, 6] was 2.8 µM, the “Transactivation activity EC50 PPARδ” value [2] was “ia” and the “Transactivation activity EC50 PPARγ” value [3] was “ia”.

`COc1ccc(CC(C(=O)O)C(C)C)cc1C(=O)NCc1ccc(C(F)(F)F)cc1` (centres unmarked) [Compound 13] was tested, and the EC50 [1, 6] was 0.29 µM, the “Transactivation activity EC50 PPARδ” value [2] was “ia” and the “Transactivation activity EC50 PPARγ” value [3] was “ia”.

In the case of `CCC(Cc1ccc(OC)c(C(=O)N(C)Cc2ccc(C(F)(F)F)cc2)c1)C(=O)O` (centres unmarked) [Compound 26], the “Transactivation activity EC50 PPARα” value [1, 6] is reported as “ia”, the “Transactivation activity EC50 PPARδ” value [2] is reported as “ia” and the “Transactivation activity EC50 PPARγ” value [3] is reported as “ia”.
